Results from patent US20100331320A1, “CYCLIC INHIBITORS OF 11BETA-HYDROXYSTEROID DEHYDROGENASE 1” (Vitae Pharmaceuticals, Inc., priority 2009, published 2010).

Experiments:
11β-HSD1 = target: T1, 11β-HSD1 (Homo sapiens, UniProt P28845); test: biochemical; conditions: read-out: Average % control inhibition at 100 nM
T1 construct: detecting cortisol generated from cortisterone by human liver microsomes
Experimental: Briefly, compounds were incubated for 1 hour at 37° C. in Tris buffer (20 mM tris, 5 mM EDTA, pH 6.0) containing NADPH (200 μM) and cortisone (80 nM). Cortisol generated in the reaction was then detected with a competitive immunoassay, involving two HTRF conjugates: cortisol linked to XL665 and anti-cortisol antibody labeled with Europium cryptate. The incubation period for detection reaction was typically 2 hours. […] The ratio of the two emission signals was then calculated (Em665*10000/Em615). […] Each assay also contained a calibration curve with cortisol to transform the fluorescent data into cortisol concentrations. Percent inhibition of each compound was determined relative to the carbenoxolone signal.

CYP3A4 = CYP3A4 (Homo sapiens, UniProt P08684); test: Biological Test Example 6: CYP3A4 Inhibition ([N-methyl-14C]-Erythromycin N-demethylation); format: in vitro ADME; conditions: recombinant CYP3A4, probe [N-methyl-14C]-Erythromycin (50 μM)
[1] = Slurry experiment on stability of the crystalline form (water suspension, XRPD); format: physicochemical; conditions: for stability of the anhydrous state: during the measurement by XRPD (30 minutes); for polymorphic change after slurry in water: suspended in water for up to seven days, XRPD of the filtration residue
Experimental: In this study, a suspension of the monohydrate of Example 48 was suspended in water for up to seven days. After the treatment, the mixtures were filtered and an x-ray powder diffraction of the filtration residue was measured.
In this study, a suspension of the monohydrate of Example 75 was suspended in water for up to seven days. After the treatment, the mixtures were filtered and an x-ray powder diffraction of the filtration residue was measured.

T1 sequence (P28845 whole entry): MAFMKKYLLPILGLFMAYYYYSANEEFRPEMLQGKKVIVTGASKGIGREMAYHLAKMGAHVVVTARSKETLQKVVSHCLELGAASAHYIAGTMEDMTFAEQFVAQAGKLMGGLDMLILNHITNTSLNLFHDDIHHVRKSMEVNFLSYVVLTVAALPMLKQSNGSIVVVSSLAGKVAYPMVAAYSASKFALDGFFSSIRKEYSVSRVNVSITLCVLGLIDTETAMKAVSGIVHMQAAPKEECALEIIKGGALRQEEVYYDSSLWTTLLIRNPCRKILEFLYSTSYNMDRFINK
CYP3A4, sequence (P08684 whole entry): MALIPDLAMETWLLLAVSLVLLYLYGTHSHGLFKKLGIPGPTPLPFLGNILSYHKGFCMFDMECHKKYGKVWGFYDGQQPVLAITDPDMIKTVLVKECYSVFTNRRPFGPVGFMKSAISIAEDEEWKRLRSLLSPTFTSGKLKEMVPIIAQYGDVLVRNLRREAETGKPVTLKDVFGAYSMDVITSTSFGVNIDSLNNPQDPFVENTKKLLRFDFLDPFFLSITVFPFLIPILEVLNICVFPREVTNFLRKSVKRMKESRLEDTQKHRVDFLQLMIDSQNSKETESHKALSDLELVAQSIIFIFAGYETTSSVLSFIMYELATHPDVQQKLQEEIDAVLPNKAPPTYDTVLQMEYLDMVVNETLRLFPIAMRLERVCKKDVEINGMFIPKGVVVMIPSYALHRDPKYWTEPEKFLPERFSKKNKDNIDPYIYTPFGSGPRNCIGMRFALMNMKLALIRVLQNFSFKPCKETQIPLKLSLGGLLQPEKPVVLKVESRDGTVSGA

| SMILES | percent inhibition at 0.1 µM (11β-HSD1) | also measured |
| --- | --- | --- |
| C[C@@H](c1ccc(-c2cc(=O)n(C)cc2F)cc1)N1CC[C@](CC(C)(C)O)(c2ccccc2)OC1=O [Example 79, 3-{(S)-1-[4-(5-Fluoro-1-methyl-2-oxo-1,2-dihydro-pyridin-4-yl)-phenyl]-ethyl}-(S)-6-(2-hydroxy-2-methyl-propyl)-6-phenyl-[1,3]oxazinan-2-one] | 15% | – |
| C[C@@H](c1ccc(-c2ccn(CC(C)(C)O)c(=O)c2)cc1)N1CC[C@](CC(C)(C)O)(c2ccccc2)OC1=O [Example 80, (S)-6-(2-Hydroxy-2-methyl-propyl)-3-((S)-1-{4-[1-(2-hydroxy-2-methyl-propyl)-2-oxo-1,2-dihydro-pyridin-4-yl]-phenyl}-ethyl)-6-phenyl-[1,3]oxazinan-2-one] | 37% | – |
| COCC(C)Cn1ccc(-c2ccc([C@H](C)N3CC[C@](CC(C)(C)O)(c4ccccc4)OC3=O)cc2)cc1=O (stereo partly drawn) [Example 81, (S)-6-(2-Hydroxy-2-methyl-propyl)-3-((S)-1-{4-[1-(3-methoxy-2-methyl-propyl)-2-oxo-1,2-dihydro-pyridin-4-yl]-phenyl}-ethyl)-6-phenyl-[1,3]oxazinan-2-one] | 11% | – |
| CC(CO)Cn1ccc(-c2ccc([C@H](C)N3CC[C@](CC(C)(C)O)(c4ccccc4)OC3=O)cc2)cc1=O (stereo partly drawn) [Example 82, (S)-6-(2-Hydroxy-2-methyl-propyl)-3-((S)-1-{4-[1-(3-hydroxy-2-methyl-propyl)-2-oxo-1,2-dihydro-pyridin-4-yl]-phenyl}-ethyl)-6-phenyl-[1,3]oxazinan-2-one] | -12% | – |
| COC(C)(C)Cn1ccc(-c2ccc([C@H](C)N3CC[C@](CC(C)(C)O)(c4ccccc4)OC3=O)cc2)cc1=O [Example 83, (S)-6-(2-Hydroxy-2-methyl-propyl)-3-(1-{4-[1-(2-methoxy-2-methyl-propyl)-2-oxo-1,2-dihydro-pyridin-4-yl]-phenyl}-ethyl)-6-phenyl-[1,3]oxazinan-2-one] | 54% | IC50 (CYP3A4): > 50 µM |
| C[C@@H](c1ccc(-c2ccn(CC(C)(C)CO)c(=O)c2)cc1)N1CC[C@](CC(C)(C)O)(c2ccccc2)OC1=O [Example 90, 3-((S)-1-{4-[1-(3-Hydroxy-2,2-dimethyl-propyl)-2-oxo-1,2-dihydro-pyridin-4-yl]-phenyl}-ethyl)-(S)-6-(2-hydroxy-2-methyl-propyl)-6-phenyl-[1,3]oxazinan-2-one] | 4% | – |
| C[C@@H](c1ccc(-c2ccn(C)c(=O)c2)cc1)N1CC[C@](CC(C)(C)O)(c2ccccc2)OC1=O [anhydrous form of Example 48, (S)-6-(2-hydroxy-2-methylpropyl)-3-((S)-1-(4-(1-methyl-2-oxo-1,2-dihydropyridin-4-yl)phenyl)ethyl)-6-phenyl-1,3-oxazinan-2-one] | – | stability of the anhydrous state [1]: did not remain in the anhydrous state |
| C[C@@H](c1ccc(-c2ccn(C3CC3)c(=O)c2)cc1)N1CC[C@](CC(C)(C)O)(c2ccccc2)OC1=O [anhydrous form of Example 75, 3-{(S)-1-[4-(1-Cyclopropyl-2-oxo-1,2-dihydro-pyridin-4-yl)-phenyl]-ethyl}-(S)-6-(2-hydroxy-2-methyl-propyl)-6-phenyl-[1,3]oxazinan-2-one] | – | stability of the anhydrous state [1]: did not remain in the anhydrous state |
| C[C@@H](c1ccc(-c2ccn(C)c(=O)c2)cc1)N1CC[C@](CC(C)(C)O)(c2ccccc2)OC1=O [monohydrate of Example 48, (S)-6-(2-hydroxy-2-methylpropyl)-3-((S)-1-(4-(1-methyl-2-oxo-1,2-dihydropyridin-4-yl)phenyl)ethyl)-6-phenyl-1,3-oxazinan-2-one] | – | polymorphic change after slurry in water [1]: No polymorphic change was observed |
| C[C@@H](c1ccc(-c2ccn(C3CC3)c(=O)c2)cc1)N1CC[C@](CC(C)(C)O)(c2ccccc2)OC1=O [monohydrate of Example 75, 3-{(S)-1-[4-(1-Cyclopropyl-2-oxo-1,2-dihydro-pyridin-4-yl)-phenyl]-ethyl}-(S)-6-(2-hydroxy-2-methyl-propyl)-6-phenyl-[1,3]oxazinan-2-one] | – | polymorphic change after slurry in water [1]: No polymorphic change was observed |
